Reference: patent US20180236011A1, “METHODS TO ENHANCE TUMOR-TARGETING BY BACTERIA” (priority 2017, published 2018)

Tests used:
melanoma PDOX [1] = assay: Confocal microscopy of S. typhimurium A1-R-GFP tumor targeting (fluorescent area); format: in vivo, Athymic nu/nu nude mice; settings: drug combined with S. typhimurium A1-R
Description: GFP-expressing S. typhimurium A1-R bacteria (AntiCancer Inc.,) were grown overnight on LB medium (Fisher Sci., Hanover Park, Ill., USA) and then diluted 1:10 in LB medium. Bacteria were harvested at late-log phase, washed with PBS, and then diluted in PBS. S. typhimurium A1-R was injected intravenously. A total of 5×10^7 CFU S. typhimurium A1-R in 100 μl PBS was administered to each mouse.
(§1) PDOX mouse models were randomized into four groups of 10 mice each: untreated control (n=10); treated with S. typhimurium A1-R (5×10^7 CFU/100 μl, i.v., qw×2, n=10); treated with TEM (25 mg/kg, p.o., qd×14) combined with S. typhimurium A1-R (5×10^7 CFU/[…]., qw×2, n=10); treated with VEM (30 mg/kg, p.o., qd×14) combined with S. typhimurium A1-R (5×10^7CFU/100 μl, i.v., qw×2, n=10). Tumor length and width were measured twice a week. Tumor volume was calculated with the following formula: Tumor volume (mm3)=length (mm)×width (mm)×width (mm)×½. Data are presented as mean±SD. The tumor volume ratio is defined at the tumor volume at any given time point relative to the initial tumor volume.
The FV1000 confocal microscope (Olympus, Tokyo, Japan) was used for high-resolution imaging. Fluorescence images were obtained using the 20×/0.50 UPLAN FLN and 40×/1.3 oil Olympus UPLAN FLN objectives. The tumor fluorescent area was analyzed with UVP software (UVP, Upland, Calif.).

melanoma PDOX [2] = assay: Histological analysis (H&E) of treated PDOX tumors; format: in vivo, Athymic nu/nu nude mice; settings: each drug combined with S. typhimurium A1-R; much more extensive than S. typhimurium A1-R
Description: as §1
Fresh tumor samples were fixed in 10% formalin and embedded in paraffin before sectioning and staining. Tissue sections (5 μm) were deparaffinized in xylene and rehydrated in an ethanol series. Hematoxylin and eosin (H&E) staining was performed according to standard protocols. Histological examination was performed with a BHS System Microscope (Olympus Corporation, Tokyo, Japan). Images were acquired with INFINITY ANALYZE software (Lumenera Corporation, Ottawa, Canada).

SMILES: Cn1nnc2c(C(N)=O)ncn2c1=O [TEM, temozolamide]
- S. typhimurium A1-R tumor targeting / accumulation (melanoma PDOX [1]; elevated accumulation leading to extensive tumor necrosis): promoted S. typhimurium A1-R tumor targeting
- S. typhimurium A1-R-GFP fluorescent area compared to S. typhimurium A1-R alone (melanoma PDOX [1]; p<0.01): significantly increase
- tumor necrosis (histology) (melanoma PDOX [2]): extensive necrosis
